The source of these data is patent US8026217B2, “Compositions and methods for treating neural anoxia and spreading depression” (Florida Atlantic University, priority 2007, dated 2011).

Entries after “also recorded” stand apart in the source; their conditions may differ.

For assay [1], the system named is metathoracic ganglion of the locust. Put plainly: SD-like events evoked by high-potassium (KCl 150 mM) injection into the locust metathoracic ganglion. Format: in vivo, Locusta migratoria. An excerpt: CSD is increasingly accepted as a primary causative agent for migraine, particularly migraine with aura. The cellular mechanisms underlying stroke, seizures and migraine are not exclusive to mammals. Using the locust (Locusta migratoria), a proven model for examining the effects of heat stress on CNS activity, a rapid rise in extracellular potassium ([K^+]o) during anoxia/hypoxia, extreme heat, and ouabain exposure was monitored. This phenomenon has all the characteristics of SD in the neocortex of mammals. Since the physiological mechanisms observed in locust SD-like events are similar to that of mammals, findings in this insect model are predictably transferable to mammals, including humans. In the locust, model SD-like events were triggered in the CNS by injecting small volumes of saline containing high levels of potassium ions (KCl at 150 mM instead of the nominal resting level of 10 mM) into the metathoracic ganglion. Potassium-sensitive microelectrodes were used to measure SD generated by KCl injections, while manipulating the PKG pathway.
This tissue response is characterised by a transient surge and subsequent clearance of potassium ions in the extracellular space ([K^+]o). During SD-like events ventilatory motor activity ceases. This was monitored using an electromyographic electrode positioned on an abdominal muscle used for ventilation (Ventilatory EMG). Upon restoration of the potassium ion gradient the neural activity recovered and preparations began to ventilate again.
The first injection was used as a control. Following the first injection, animals were allowed 10 minutes of perfusion with standard locust saline before treatment with bath applications of selected drugs (i.e. KT5823, T-0156). All drugs were dissolved in a minimum amount of DMSO before further dilution with standard locust saline to a concentration of 10^−5M and were superfused over the metathoracic ganglion for 10 minutes before the second injection. A total of 20 minutes elapsed between the first and second injection in all experiments. As shown in Figure (Bi), duration at half the maximum amplitude was used to characterize the severity of SD-like events. A significant increase was observed following the second injection when compared to the first in control animals. […] Heat shock (HS) preconditioning reduced SD duration evoked by the first and second injections. […] Numbers in the histogram bars indicate number of preparations tested. Asterisks indicate statistically significant differences between the first and second injection ([…]).
Motor pattern activity was not measured for T-0156/Cantharidin treatments. […] Figure (Cii) illustrates the drug effects by showing the percentage difference in rhythm recovery time (second injection relative to first injection).
Single SD events were evoked by injection of saline (50 nL) containing elevated potassium chloride (150 mM vs. 10 mM) directly into the metathoracic ganglion. […] During SD, ventilatory motor activity monitored electromyographically (EMG) ceased and recovered upon restoration of the potassium ion gradient. The duration of the [K^+]o wave at half its maximal amplitude and the time from failure of motor patterning to the recovery of a ventilatory rhythm were measured. […] Numbers in brackets represent sample size.
As in Example 3, SD events were evoked by injection of saline (50 nL) containing elevated potassium chloride (150 mM vs. 10 mM) directly into the metathoracic ganglion of locust preparations.

Assay [2] has the same test system. Nature of the assay: Repetitive SD triggered by ouabain in locust. In kind it is in vivo, Locusta migratoria. The conditions noted are these: for number of repetitive SD-like events in animals that generated SD: ouabain exposure, FIG. 2D; for baseline [K+]o levels during ouabain exposure: pre-treatment, FIG. 2E. An excerpt:
In a second set of experiments, repetitive SD triggered by the ionic disturbance caused by ouabain (a specific inhibitor of the sodium/potassium pump that restores ionic gradients across cell membranes) was examined.
Pretreatment with a bath application of KT5823 prevented repetitive SD in 70% of animals. […] FIG. 2B illustrates a representative example in a single preparation of the eradication of repetitive SD by prior bath application of KT5823. FIG. 2C illustrates that KT5823 reduced the percentage of preparations showing repetitive SD in response to ouabain, while FIG. 2D illustrates that control and KT5823-treated preparations have fewer repetitive SD events.

The test system of a further assay is PKG. Put plainly: PKG enzyme activity assay on heads of treated flies. Format: biochemical, Drosophila melanogaster. As to conditions: heads of sitter flies treated in vivo with volatilized agent, versus sham control. The protocol: PKG enzyme activity assays: PKG enzyme activity assays were conducted according to the procedure outlined in Kaun et al. (J Exp Biol. 210(Pt 20):3547-3558, 2007). Adult Drosophila were decapitated and the heads were homogenized in 25 mM 1-1 Tris (pH 7.4), 1 mM 1-1 EDTA, 2 mM 1-1 EGTA, 5 mM 1-1 β-mercaptoethanol, 0.05% Triton X-100 and protease inhibitor solution (Roche Diagnostics). Following microcentrifugation for 5 min, the supernatant was removed and those supernatants containing equal amounts of total protein were examined for PKG enzyme activity. The reaction mixture contained the following substances: 40 mM 1-1 Tris-HCl (pH 7.4), 20 mM 1-1 magnesium acetate, 0.2 mM 1-1 [γ^32P]ATP (500-1000 c.p.m. pmol−1), […] heptapeptide (RKRSRAE), (SEQ ID NO:6), (3 mM 1-1 cGMP and a highly specific inhibitor of cAMP-dependent protein kinase. The next step of the procedure involved incubating the reaction mixtures at a temperature of 30° C. for 10 min, followed by ending the reaction by spotting 70 μl of the reaction mixture onto Whatman P-81 filters. To remove any unreacted [γ^32P]ATP, these spots were then soaked with 75 mM 1-1 H3PO4 for 5 min and washed three times with 75 mM 1-1 H3PO4. Before quantifying enzyme activity, filters were rinsed with 100% ethanol and air dried. To calculate PKG enzyme activity, counts were taken in a Wallac 1409 Liquid Scintillation Counter using universal scintillation cocktail (ICN). PKG activity was presented in the figures as pmol of ^32P incorporated into the substrate min−1 mg−1 protein.

A further assay concerns zebrafish. Nature of the assay: Zebrafish behaviour during acute anoxia. The conditions noted are these: whole zebrafish in anoxic water post-treatment; expected. Format: in vivo. An excerpt:
Vertebrate (zebrafish) behaviour is examined during acute anoxia. Whole zebrafish are exposed to anoxic water post-treatment with a PDE5 inhibitor, 8-bromo-GMP, KT5823, and Cantharidin. The time until the animal knocks out during anoxia is monitored.

A further assay deals with mammals (mouse or rat). Put plainly: Spreading depression in mammals. Format: in vivo. As to conditions: expected. An excerpt:
The pharmacological effects of a PDE5 inhibitor, 8-bromo-GMP, KT5823, and Cantharidin during spreading depression are examined in mammals (mouse or rat).

For the compound `COC(=O)[C@@]1(OC)C[C@H]2O[C@]1(C)n1c3ccccc3c3c4c(c5c6ccccc6n2c5c31)C(=O)N(C)C4` [KT5823, (9S, 10R, 12R)-2,3,9,10,11,12-Hexahydro-10-methoxy-2-9-dimethyl-1-oxo-9,12-epoxy-1H-diindolo-[1,2,3-fg:3′,2′,1′-k1]pyrrolo[3,4-i][1,6]benzodiazocine-10-carboxylic acid methyl ester], the “length of time to recover ventilatory motor pattern activity after SD” value in assay [1] (Example 1, bath application 10^-5 M for 10 minutes before second KCl injection) was “untreated preparations and those treated with T-0156 took significantly longer to recover”. Moreover, in assay [2], the “number of repetitive SD-like events in animals that generated SD” value is recorded as “significantly more SD-like events than KT5823-treated animals” and the “baseline [K+]o levels during ouabain exposure” value is “significantly reduces the baseline [K^+]o levels”. Further, in assay [2] (pretreatment by bath application, then ouabain), the “animals in which repetitive SD was prevented” value came to 70%. The “head PKG enzyme activity” value with PKG was “significantly reducing PKG activity; also recorded: demonstrated significant effects compared to that of the sham control”. Moreover, in the assay on zebrafish, the “time until the animal knocks out during anoxia” value is “neuroprotection and prolonged behaviour when subject to anoxia”. Further, the “SD-like events and neural function” value in the assay with mammals (mouse or rat) is “neuroprotection and reduces SD-like events thereby prolonging neural function”.

`Nc1nc2c(nc(Br)n2[C@@H]2O[C@@H]3COP(=O)(O)O[C@H]3[C@H]2O)c(=O)[nH]1` [8-Br-cGMP]: the “recovery time of ventilatory rhythm, second event versus first” value in assay [1] (Example 3, drug applied for 10 minutes prior to second injection, FIG. 3D) is recorded as “The recovery time was increased”. The “animals in which repetitive SD was generated” value in assay [2] (concomitantly treated with 10^-4 M ouabain) stood at 100%. Moreover, in assay [2], the “number of repetitive SD-like events in animals that generated SD” value is given as “significantly fewer SD-like events than 8-Br-cGMP-treated animals” and the “baseline [K+]o levels during ouabain exposure” value was “did not raise the baseline [K^+]o levels above controls”. The “head PKG enzyme activity” value in the assay on PKG (listed as 8-Bromo cGMP) is “demonstrated significant effects compared to that of the sham control”. For the same compound, the “head PKG enzyme activity” value with PKG (listed as 8-bromo cGMP) is given as “induced an increase in head PKG activity levels; also recorded: increasing head PKG activity levels significantly beyond rover levels”. In the assay on zebrafish, the “time until the animal knocks out during anoxia” value is given as “increased sensitivity to anoxia causing early failure of behaviour (neural function)”. Besides, the “SD-like events and neural function” value in the assay with mammals (mouse or rat) is given as “increased SD-like events causing early failure of neural function”.
